These results are taken from ChEMBL document CHEMBL1132898, “COBRA-1, a rationally-designed epoxy-THF containing compound with potent tubulin depolymerizing activity as a novel anticancer agent” (2000).

SMILES strings stand for the structures. Active and inactive are the calls of the source. The rule behind the calls is not given here.

Assay [1] deals with NALM-6. Briefly: Compound (100 uM) was tested for its ability to kill clonogenic NALM-6 leukemia cells at 100 uM. The class given is functional, Homo sapiens.
The subject of assay [2] is U373 MG. Description: Concentration for inhibition of proliferation of U373 by impairing the mitotic spindle assembly at a concentration; Range 1-10 uM. The assay is classed as functional, cell-based. Conditions: Homo sapiens; U-373MG ATCC.
In assay [3] the test system is NALM-6. Briefly: Cytotoxic activity (<10 uM) against clonogenic NALM-6 leukemia using standard in vitro clonogenic assay; No effect. The class given is functional, cell-based. Conditions: Homo sapiens.
The target of assay [4] is Tubulin alpha chain (Sus scrofa) (UniProt P02550). Briefly: Compound was tested for tubulin polymerization in presence of GTP by using cell free tubulin turbidity assay; Active. The class given is functional.
For assay [5], the system named is PC-3. Description: Compound (100 uM) was tested for its ability to kill clonogenic PC-3 cells at 100 uM. The assay is classed as functional, Homo sapiens.
Assay [6] relates to PC-3. Description: Cytotoxic activity (<10 uM) against PC-3 prostate cancer cells using standard in vitro clonogenic assay; No effect. The assay is classed as functional, cell-based. The conditions noted are these: Homo sapiens.
The species entered for another assay is Homo sapiens. Briefly: Concentration for inhibition of proliferation of BT-20 by impairing the mitotic spindle assembly; Range 1-10 uM. The class given is functional.
Assay [7] has as its system PC-3. Description: Compound (10 uM) was tested for its ability to kill clonogenic PC-3 cells. The assay is classed as functional, Homo sapiens.
The test system of assay [8] is U373 MG. Briefly: Concentration of compound that increased the level of c-jun mRNA expression in U373 glioblastoma cells. The conditions noted are these: Homo sapiens; U-373MG ATCC. The assay is classed as functional, cell-based.
The subject of assay [9] is NALM-6. Description: Compound (10 uM) was tested for its ability to kill clonogenic NALM-6 cells. The assay is classed as functional, Homo sapiens.
Another assay relates to BT-20. Description: Concentration of compound that increased the level of c-jun mRNA expression in BT-20 breast cancer cells. The assay is classed as functional, cell-based. Conditions: Homo sapiens.

Tubulin alpha chain (Sus scrofa), sequence (P02550 whole entry, looked up): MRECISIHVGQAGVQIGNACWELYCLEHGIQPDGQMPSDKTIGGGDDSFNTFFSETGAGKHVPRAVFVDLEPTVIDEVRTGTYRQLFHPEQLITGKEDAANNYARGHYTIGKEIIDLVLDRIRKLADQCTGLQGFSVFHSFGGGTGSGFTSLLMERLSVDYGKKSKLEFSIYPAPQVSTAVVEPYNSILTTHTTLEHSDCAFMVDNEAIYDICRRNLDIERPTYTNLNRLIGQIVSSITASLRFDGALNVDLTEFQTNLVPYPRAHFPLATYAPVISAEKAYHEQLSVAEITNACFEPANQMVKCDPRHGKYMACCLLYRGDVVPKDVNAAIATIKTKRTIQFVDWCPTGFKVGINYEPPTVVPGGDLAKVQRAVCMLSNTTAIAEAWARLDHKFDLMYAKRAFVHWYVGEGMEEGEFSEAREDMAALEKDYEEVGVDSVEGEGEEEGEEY

Consider `C=CCC[C@H](O)[C@H]1CC[C@H]([C@H](O)CCCCCCCCCCCC)O1`, for which the Cell kill in the assay with NALM-6 [1] is listed as more than 99.9%; in the assay on PC-3 [5] it was more than 99.9%; in the assay with PC-3 [7], 91%; with NALM-6 [9] it was 99%. Moreover, the Concentration stood at 10 µM in the assay on U373 MG [2], 10 µM in the assay filed under Homo sapiens, 250 µM in the assay with U373 MG [8] and 250 µM with BT-20. Besides, the Concentration result in the assay on NALM-6 [3] and in the assay with PC-3 [6] was “inactive” in each case. The inhibition entry in [4] is “Active”.
